Measurements taken from PubChem BioAssay (NCI).
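Five compound concentrations were applied to cells in 96-well plates for 48 hours; endpoints were derived by simple linear interpolation of the resulting dose-response curve. Here, GI50 denotes the concentration required for 50% inhibition of growth. TGI: total growth inhibition.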

Legend:
Assay in all cases: inhibition of tumour cell growth, NCI panel, 48 h
KM12 colon = system: KM12 colon
NCI-H460 lung = system: NCI-H460 lung
OVCAR-5 ovarian = system: OVCAR-5 ovarian
LOX IMVI melanoma = system: LOX IMVI melanoma
ACHN renal = system: ACHN renal
IGROV1 ovarian = system: IGROV1 ovarian
SF-539 CNS = system: SF-539 CNS
SR leukemia = system: SR leukemia
SK-MEL-2 melanoma = system: SK-MEL-2 melanoma
SK-MEL-5 melanoma = system: SK-MEL-5 melanoma
CAKI-1 renal = system: CAKI-1 renal
A549 NSCLC = system: A549 NSCLC
HCT-116 colon = system: HCT-116 colon
OVCAR-8 ovarian = system: OVCAR-8 ovarian
DLD-1 colon = system: DLD-1 colon
HCT-15 colon = system: HCT-15 colon
M14 melanoma = system: M14 melanoma
U251 CNS = system: U251 CNS
SN12C renal = system: SN12C renal
NCI-H226 lung = system: NCI-H226 lung
KM20L2 colon = system: KM20L2 colon
SNB-19 CNS = system: SNB-19 CNS
SF-295 CNS = system: SF-295 CNS
HOP-62 NSCLC = system: HOP-62 NSCLC
786-0 renal = system: 786-0 renal
SW-620 colon = system: SW-620 colon
MOLT-4 leukemia = system: MOLT-4 leukemia
OVCAR-3 ovarian = system: OVCAR-3 ovarian
M19-MEL melanoma = system: M19-MEL melanoma
HT29 colon = system: HT29 colon
TK-10 renal = system: TK-10 renal
CCRF-CEM leukemia = system: CCRF-CEM leukemia
SK-MEL-28 melanoma = system: SK-MEL-28 melanoma
XF 498 CNS = system: XF 498 CNS
RXF 393 renal = system: RXF 393 renal
K-562 leukemia = system: K-562 leukemia
OVCAR-4 ovarian = system: OVCAR-4 ovarian
UO-31 renal = system: UO-31 renal
SNB-75 CNS = system: SNB-75 CNS
RPMI-8226 leukemia = system: RPMI-8226 leukemia
HOP-92 NSCLC = system: HOP-92 NSCLC
EKVX NSCLC = system: EKVX NSCLC
COLO 205 colon = system: COLO 205 colon
NCI-H23 lung = system: NCI-H23 lung
LXFL 529 NSCLC = system: LXFL 529 NSCLC
SNB-78 CNS = system: SNB-78 CNS
UACC-257 melanoma = system: UACC-257 melanoma
DMS 273 small cell lung = system: DMS 273 small cell lung
UACC-62 melanoma = system: UACC-62 melanoma
HL-60(TB) leukemia = system: HL-60(TB) leukemia
SK-OV-3 ovarian = system: SK-OV-3 ovarian
HCC-2998 colon = system: HCC-2998 colon
HOP-18 NSCLC = system: HOP-18 NSCLC

C=[CH][Sn]([CH]=C)([S]c1cccc2cccnc12)[S]c1cccc2cccnc12
GI50 (KM12 colon): 176 nM
TGI (KM12 colon): 322 nM
GI50 (NCI-H460 lung): 201 nM
TGI (NCI-H460 lung): 417 nM
GI50 (OVCAR-5 ovarian): 237 nM
TGI (OVCAR-5 ovarian): 745 nM
GI50 (LOX IMVI melanoma): 172 nM
TGI (LOX IMVI melanoma): 310 nM
GI50 (ACHN renal): 206 nM
TGI (ACHN renal): 507 nM
GI50 (IGROV1 ovarian): 273 nM
TGI (IGROV1 ovarian): 726 nM
GI50 (SF-539 CNS): 321 nM
TGI (SF-539 CNS): 1010 nM
GI50 (SR leukemia): 216 nM
TGI (SR leukemia): 687 nM
GI50 (SK-MEL-2 melanoma): 222 nM
TGI (SK-MEL-2 melanoma): 490 nM
GI50 (SK-MEL-5 melanoma): 203 nM
TGI (SK-MEL-5 melanoma): 389 nM
GI50 (CAKI-1 renal): 366 nM
TGI (CAKI-1 renal): 1580 nM
GI50 (A549 NSCLC): 343 nM
TGI (A549 NSCLC): 1120 nM
GI50 (HCT-116 colon): 165 nM
TGI (HCT-116 colon): 318 nM
GI50 (OVCAR-8 ovarian): 313 nM
TGI (OVCAR-8 ovarian): 1000 nM
GI50 (DLD-1 colon): 244 nM
TGI (DLD-1 colon): 722 nM
GI50 (HCT-15 colon): 237 nM
TGI (HCT-15 colon): 648 nM
GI50 (M14 melanoma): 210 nM
TGI (M14 melanoma): 404 nM
GI50 (U251 CNS): 191 nM
TGI (U251 CNS): 380 nM
GI50 (SN12C renal): 442 nM
TGI (SN12C renal): 1600 nM
GI50 (NCI-H226 lung): 280 nM
TGI (NCI-H226 lung): 1150 nM
GI50 (KM20L2 colon): 211 nM
TGI (KM20L2 colon): 449 nM
GI50 (SNB-19 CNS): 794 nM
TGI (SNB-19 CNS): 2040 nM
GI50 (SF-295 CNS): 438 nM
TGI (SF-295 CNS): 1830 nM
GI50 (HOP-62 NSCLC): 1450 nM
TGI (HOP-62 NSCLC): 3490 nM
GI50 (786-0 renal): 216 nM
TGI (786-0 renal): 452 nM
GI50 (SW-620 colon): 156 nM
TGI (SW-620 colon): 299 nM
GI50 (MOLT-4 leukemia): 287 nM
TGI (MOLT-4 leukemia): 967 nM
GI50 (OVCAR-3 ovarian): 268 nM
TGI (OVCAR-3 ovarian): 810 nM
GI50 (M19-MEL melanoma): 194 nM
TGI (M19-MEL melanoma): 372 nM
GI50 (HT29 colon): 226 nM
TGI (HT29 colon): 476 nM
GI50 (TK-10 renal): 458 nM
TGI (TK-10 renal): 1460 nM
GI50 (CCRF-CEM leukemia): 76.7 nM
TGI (CCRF-CEM leukemia): 641 nM
GI50 (SK-MEL-28 melanoma): 138 nM
TGI (SK-MEL-28 melanoma): 321 nM
GI50 (XF 498 CNS): 283 nM
TGI (XF 498 CNS): 679 nM
GI50 (RXF 393 renal): 255 nM
TGI (RXF 393 renal): 678 nM
GI50 (K-562 leukemia): 234 nM
TGI (K-562 leukemia): 621 nM
GI50 (OVCAR-4 ovarian): 204 nM
TGI (OVCAR-4 ovarian): 553 nM
GI50 (UO-31 renal): 181 nM
TGI (UO-31 renal): 358 nM
GI50 (SNB-75 CNS): 562 nM
TGI (SNB-75 CNS): 2370 nM
GI50 (RPMI-8226 leukemia): 248 nM
TGI (RPMI-8226 leukemia): 692 nM
GI50 (HOP-92 NSCLC): 1590 nM
TGI (HOP-92 NSCLC): 3070 nM
GI50 (EKVX NSCLC): 678 nM
TGI (EKVX NSCLC): 1970 nM
GI50 (COLO 205 colon): 70.2 nM
TGI (COLO 205 colon): 254 nM
GI50 (NCI-H23 lung): 169 nM
TGI (NCI-H23 lung): 388 nM
GI50 (LXFL 529 NSCLC): 236 nM
TGI (LXFL 529 NSCLC): 649 nM
GI50 (SNB-78 CNS): 145 nM
TGI (SNB-78 CNS): 396 nM
GI50 (UACC-257 melanoma): 212 nM
TGI (UACC-257 melanoma): 494 nM
GI50 (DMS 273 small cell lung): 216 nM
TGI (DMS 273 small cell lung): 486 nM
GI50 (UACC-62 melanoma): 147 nM
TGI (UACC-62 melanoma): 287 nM
GI50 (HL-60(TB) leukemia): 268 nM
TGI (HL-60(TB) leukemia): 611 nM
GI50 (SK-OV-3 ovarian): 436 nM
TGI (SK-OV-3 ovarian): 1550 nM
GI50 (HCC-2998 colon): 212 nM
TGI (HCC-2998 colon): 437 nM
GI50 (HOP-18 NSCLC): 1660 nM
TGI (HOP-18 NSCLC): 3020 nM
